Experimental data published in the supplement of paper PMC11061612.

Key:
[1] = tested on: BFTC-909 (Kidney Carcinoma); assay: Bliss excess, mean over the matrix (fraction); higher = more synergy
Method in brief: (§1)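 Cell lines grown in DMEM/F12 or RPMI with 10% FBS were plated in 1536-well plates and held 24 hours at 37°C, 5% CO2 before 72 hours of exposure to two-drug dose matrices, with DMSO typically at 0.2%. CellTiter-Glo 2.0 luminescence gave viability, which was converted to inhibition. Vehicle wells were set to 0 and blank wells to 1. Combination Emax is the second-highest inhibition in the matrix, and Bliss excess is the observed combination effect minus the expected EA + EB − EA·EB, where EA and EB are the single-agent effects.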

[2] = tested on: HuCCT1 (Biliary Tract Carcinoma); assay: as above
Method in brief: as §1

[3] = tested on: NCI-H524 (Small Cell Lung Carcinoma); assay: as above
Method in brief: as §1

[4] = tested on: OE21 (Esophageal Squamous Cell Carcinoma); assay: as above
Method in brief: as §1

[5] = tested on: SAS (Oral Cavity Carcinoma); assay: as above
Method in brief: as §1

A673 (Ewing's Sarcoma) = assay: combination Emax (second highest fraction inhibited in the dose matrix, 72 h); higher = more inhibition; extreme values may be limits of the assay
Method in brief: as §1

[6] = tested on: ALL-PO (B-Lymphoblastic Leukemia); assay: as above
Method in brief: as §1

[7] = tested on: BE-13 (T-Lymphoblastic Leukemia); assay: as above
Method in brief: as §1

[8] = tested on: HuCCT1 (Biliary Tract Carcinoma); assay: as above
Method in brief: as §1

[9] = tested on: HuH-7 (Hepatocellular Carcinoma); assay: as above
Method in brief: as §1

[10] = tested on: KMRC-20 (Kidney Carcinoma); assay: as above
Method in brief: as §1

[11] = tested on: KYAE-1 (Esophageal Adenocarcinoma); assay: as above
Method in brief: as §1

[12] = tested on: L-428 (Hodgkin's Lymphoma); assay: as above
Method in brief: as §1

LOXIMVI (Melanoma) = assay: as above
Method in brief: as §1

[13] = tested on: LS-123 (Colorectal Carcinoma); assay: as above
Method in brief: as §1

[14] = tested on: MHH-CALL-2 (B-Lymphoblastic Leukemia); assay: as above
Method in brief: as §1

[15] = tested on: NCI-H1568 (Lung Adenocarcinoma); assay: as above
Method in brief: as §1

[16] = tested on: NCI-H209 (Small Cell Lung Carcinoma); assay: as above
Method in brief: as §1

[17] = tested on: NUGC-4 (Gastric Carcinoma); assay: as above
Method in brief: as §1

[18] = tested on: OVCAR-5 (Ovarian Carcinoma); assay: as above
Method in brief: as §1
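For Bliss excess, mean over the matrix in this document: after 72 h of two-drug dosing.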

Row | SMILES | Bliss excess [1] | Bliss excess [2] | Bliss excess [3] | Bliss excess [4] | Bliss excess [5] | combination Emax (A673 (Ewing's Sarcoma)) | combination Emax [6] | combination Emax [7] | combination Emax [8] | combination Emax [9] | combination Emax [10] | combination Emax [11] | combination Emax [12] | combination Emax (LOXIMVI (Melanoma)) | combination Emax [13] | combination Emax [14] | combination Emax [15] | combination Emax [16] | combination Emax [17] | combination Emax [18]
1 | NC1(C(=O)N[C@@H](CCO)c2ccc(Cl)cc2)CCN(c2ncnc3[nH]ccc23)CC1 [Capivasertib] + CCN(CCO)CCCOc1ccc2c(Nc3cc(CC(=O)Nc4cccc(F)c4)[nH]n3)ncnc2c1 [AZD2811] (first compound max 10 µM, 7x7, partner max 1 µM) | 0.0366 | 0.0051 | 0.0113 | 0.0098 | -0.0264 | 0.703 | 1 | 0.733 | 0.309 | 0.225 | 0.398 | 0.156 | 0.302 | 0.517 | 0.398 | 0.532 | 0.22 | 0.428 | 0.0827 | 0.401
2 | COc1nnc2ccc(N3CCC(c4ccc(OCCN5CCN(C)C(=O)[C@H]5C)cc4)CC3)nn12 [AZD5153] + Cn1cnc2c(F)c(Nc3ccc(Br)cc3Cl)c(C(=O)NOCCO)cc21 [Selumetinib] (first compound max 1 µM, 7x7, partner max 10 µM) | -0.0399 | 0.0453 | -0.0216 | 0.0032 | 0.0163 | 0.604 | 0.88 | 0.672 | 0.826 | 0.885 | 0.414 | 0.116 | 0.784 | 0.877 | 0.794 | 0.432 | 0.413 | 0.508 | 0.831 | 0.685
3 | Cc1c2c(nn1C)CSCc1cc(n(C)n1)CSc1cc(c3ccccc3c1)OCCCc1c(C(=O)O)n(C)c3c-2c(Cl)ccc13 [AZD5991] + Cn1cnc2c(F)c(Nc3ccc(Br)cc3Cl)c(C(=O)NOCCO)cc21 [Selumetinib] (first compound max 1 µM, 7x7, partner max 3 µM) | 0.0607 | 0.0339 | -0.0129 | 0.0286 | 0.0248 | 0.671 | 1 | 0.449 | 0.508 | 0.301 | 0.196 | 0.163 | 0.0936 | 0.513 | 0.455 | 1 | 0.563 | 0.402 | 0.616 | 0.543
4 | NC1(C(=O)N[C@@H](CCO)c2ccc(Cl)cc2)CCN(c2ncnc3[nH]ccc23)CC1 [Capivasertib] + CC(=O)c1c(C)c2cnc(Nc3ccc(N4CCNCC4)cn3)nc2n(C2CCCC2)c1=O [Palbociclib] (first compound max 10 µM, 7x7, partner max 10 µM) | 0.006 | -0.0067 | 0.0047 | 0.0379 | -0.0211 | 0.271 | 0.688 | 0.507 | 0.43 | 0.23 | 0.372 | 0.162 | 0.436 | 0.688 | 0.364 | 0.216 | 0.357 | 0.603 | 0.305 | 0.455
5 | Cc1c2c(nn1C)CSCc1cc(n(C)n1)CSc1cc(c3ccccc3c1)OCCCc1c(C(=O)O)n(C)c3c-2c(Cl)ccc13 [AZD5991] + Cc1cc2ncnn2cc1Nc1ncc2c(n1)n(C1CCOCC1)c(=O)n2C [AZD7648] (first compound max 1 µM, 7x7, partner max 10 µM) | 0.0101 | -0.032 | -0.016 | -0.0387 | -0.0078 | 0.471 | 1 | 0.406 | 0.406 | 0.185 | 0.295 | 0.194 | 0.251 | 0.467 | 0.399 | 1 | 0.232 | 0.431 | 0.279 | 0.256
6 | Cc1c2c(nn1C)CSCc1cc(n(C)n1)CSc1cc(c3ccccc3c1)OCCCc1c(C(=O)O)n(C)c3c-2c(Cl)ccc13 [AZD5991] + CCN(CCO)CCCOc1ccc2c(Nc3cc(CC(=O)Nc4cccc(F)c4)[nH]n3)ncnc2c1 [AZD2811] (first compound max 1 µM, 7x7, partner max 1 µM) | 0.0156 | 0.0128 | -0.0016 | 0.0345 | -0.0092 | 0.946 | 1 | 0.929 | 0.267 | 0.219 | 0.312 | 0.296 | 0.31 | 0.339 | 0.229 | 0.987 | 0.306 | 0.967 | 0.22 | 0.205
